Assay results reported in article PMC12042267, “Expanding the Family of Monosubstituted 15-Membered Pyridine-Based Macrocyclic Ligands for Mn(II) Complexation in the Context of MRI” (Inorganic Chemistry, 2025).
Read-outs that look alike come from different tables or passages of the source.

Legend:
[1] = Ligand protonation constants by pH-potentiometric titration; format: physicochemical; conditions: I = 0.15 M NaCl; 25 °C
Description: (§1) Metal stock solutions were prepared from the highest analytical grade chemicals, and their concentration was determined by complexometric titration with standardized Na2H2EDTA, using xylenol orange indicator in the presence of urotropine buffer (ZnCl2 and MnCl2); Eriochrome black T indicator in the presence of ammonium acetate buffer (CaCl2) or murexide indicator in ammonium solution (CuCl2). The concentration of the ligand stock solutions was determined by pH-potentiometric titrations (the difference between two consecutive inflection points of the ligand titration curve corresponds to two (L2) or one (L3) ligand equivalents). To determine the protonation constants of the ligand and stability constants of the metal complexes with selected divalent metal ions, pH-potentiometric titrations were carried out with 0.1 M NaOH at 2 mM ligand concentration, in the absence (for ligand protonation constants) or in the presence of one equivalent of metal ion (for stability constants). During the titration, the waiting time was 2 min between successive points (V0 = 5 mL). The temperature (25.0 ± 0.1 °C) was controlled by a circulating water bath. The ionic strength was set to I = 0.15 M NaCl. All titrations were performed under a nitrogen atmosphere to avoid the effect of CO2. Titrations were carried out in the pH range from 1.8 (L3) or 2.0 (L2) (after the addition of 1 M HCl solution to the starting ligand solution in the titration cell) to pH 11 (or until precipitation of the metal hydroxide). All pH-potentiometric titrations were performed using a 785 DMP Titrino titration workstation with a combined electrode (Metrohm). The p[H] (p[H] = −log[H+], concentration in molarity) was measured in each titration with a combined pH glass electrode (Metrohm) filled with 3 M KCl. The electrode was calibrated in hydrogen ion concentration by titration of HCl with KOH in 0.1 M electrolyte solution.[37] A plot of potential versus p[H] allows determination of the electrode standard potential (E°) and the slope factor (f).
The protonation constants of the ligand (log Ki^H) are defined as follows [drawing 1] where i = 1, 2, ··· and [Hi–1L] and [H^+] are the equilibrium concentrations of the ligand (i = 1), its protonated forms (i = 2, ···), and the hydrogen ion. The stability (KML) and the protonation (KMHiL) constants for the metal complexes are defined as follows [drawing 2] [drawing 3] For the calculations of the equilibrium constants, the HYPERQUAD program was used.[38] The number of fitted data pairs was between 190 and 240. The ionic product of water at 25 °C and 0.1 M ionic strength is pKw = 13.77.[39] Fixed values were used for pKw, ligand acidity constants, and total concentrations of metal, ligand, and acid. […]

[2] = Stability constants of Ca(II) complexes by pH-potentiometry; format: physicochemical; conditions: I = 0.15 M NaCl, 25 °C
Description: as §1
(§2) The protonation constants of the ligand (log Ki^H) are defined as follows [drawing 1] where i = 1, 2, ··· and [Hi–1L] and [H^+] are the equilibrium concentrations of the ligand (i = 1), its protonated forms (i = 2, ···), and the hydrogen ion. The stability (KML) and the protonation (KMHiL) constants for the metal complexes are defined as follows [drawing 2] [drawing 3] For the calculations of the equilibrium constants, the HYPERQUAD program was used.[38] The number of fitted data pairs was between 190 and 240. The ionic product of water at 25 °C and 0.1 M ionic strength is pKw = 13.77.[39] Fixed values were used for pKw, ligand acidity constants, and total concentrations of metal, ligand, and acid. All values and errors (one standard deviation) reported are at least the average of two independent experiments.

[3] = Stability constants of Mn(II) complexes by pH-potentiometry, pMn and species distribution; format: physicochemical; conditions: for log KML / log KML(OH): Mn(II), I = 0.15 M NaCl, 25 °C; for pMn: pMn = −log[Mn(II)]free at pH 7.4, cMn = clig = 10^–5 M
Description: as §1, §2
To obtain further information about the impact of a given pendant arm, it is interesting to calculate pMn values (pMn = −log[Mn(II)]free at pH 7.4, cMn = clig= 10^–5 M) which provide a more direct comparison of MnL stabilities, independently of differences in protonation constants (Table 4). […] Nevertheless, the too large, 15-membered macrocyclic cavity combined with a lower number of pendant arms provide ca. 2 orders of magnitude lower stability for Mn(II) complexation as compared to the 12-membered pyclen derivatives (Table 4).

[4] = Stability constants of Zn(II) complexes by pH-potentiometry; format: physicochemical; conditions: I = 0.15 M NaCl, 25 °C
Description: as §1, §2

[5] = Stability constants of Cu(II) complexes by pH-potentiometry; format: physicochemical; conditions: I = 0.15 M NaCl, 25 °C
Description: as §1, §2

[6] = Dissociation kinetics of Mn(II) complexes, transmetalation with Zn(II) (T2 relaxation); format: physicochemical; conditions: Zn(II) transmetalation, 25 °C, 0.15 M NaCl, pH 4.9–6.0
Description: The transmetalation reaction of MnL2 and MnL3 (1.4 mM) was monitored in the presence of 10, 20, 30, and 40 mol equiv of Zn(II) ions, by measuring water proton T2 relaxation times (60 MHz) as a function of time at 25 °C and in 0.15 M NaCl, in the pH range 4.9–6.0 (4.9, 5.0, 5.2, 5.5, and 6.0). To control pH, 50 mM N-methyl-piperazine (pH 4.9–5.5) or 50 mM MES (2-(4-morpholino)ethane-sulfonic acid) buffer (pH 5.7–6.0) was used. Transmetalation of MnL2 (0.3 mM) was also investigated in the presence of 10, 20, 30, and 40 mol equiv of Cu(II) ions, by monitoring the UV–vis absorbance at 274.0 nm as a function of time at 25 °C and in 0.15 M NaCl, in the pH range 4.7–5.0 (in 75 mM 1,4-dimethyl piperazine (DMP) buffer). No oxidation of the samples was observed. The program OriginPro 9 was used for the fitting of experimental data.
The dissociation kinetics was followed through monitoring Mn(II) release by water proton T2 measurements, at pH […], in the presence of 10- to 40-fold excess of Zn(II) and through UV–vis measurements in the presence of 10- to 40-fold excess of Cu(II) at pH 4.7–5.0 (only for MnL2). The observed dissociation rate constants, kobs, increase with increasing H^+ ion concentration (Figures 4, left and S20). They remain independent of Zn(II) concentration (Figures S18 and S19), but do show dependence on Cu(II) concentration (Figure S21).
In excess of the exchanging metal ion, the reaction is of pseudo-first order, and the rate is proportional to the total MnL2 or MnL3 concentration (eq 1), where kobs is the pseudo-first-order rate constant. [drawing 4] 1 In general, different dissociation pathways can coexist, implying the participation of protons and/or the exchanging metal ion,[47] as illustrated in Figure 5.
Based on this scheme, the overall rate for either Zn(II) or Cu(II) transmetalation can be given by eq 2, where M = Zn^2+ or Cu^2+ (for clarity, charges of the complexes are omitted). [drawing 5] 2 Here, the first and second terms correspond to the spontaneous dissociation of the nonprotonated and the monoprotonated complexes, respectively, the third term describes the proton-assisted dissociation of the monoprotonated complex, and the last two terms refer to the spontaneous dissociation of the dinuclear complex and metal-assisted dissociation of the monoprotonated MnL2 or MnL3 complex. [MnL]tot describes the total concentration of Mn(II) chelates ([MnL]tot = [MnL] + [MnHL] + [ZnLMn]). Since no obvious Zn(II) dependence (for any of the two systems) was observed, only the spontaneous and proton-assisted dissociation pathways were taken into consideration. Consequently, the observed rate constants can be expressed as in eq 3 with k0 = kMnL, k1 = kMnHL·KMnHL, and k2 = ^HkMnHL·KMnHL. [drawing 6] 3 The kobs rate constants were fitted to eq 3, and the calculated parameters are listed in Table 5 for the Zn(II) exchange. During the fitting procedure, KMnHL was fixed to the value obtained from the pH-potentiometric titrations.

[7] = 20 MHz, 0.47 T ref 28, cited from earlier work
[8] = cited from earlier work
[9] = cited from earlier work; remark: listed apart in the source

SMILES | log K2^H [1] | log K3^H [1] | log KHML [2] | log KML [2] | log KML [3] | log KML(OH) [3] | pMn [3] | log KHML [4] | log KML [4] | log KML(OH) [4] | log KML [5] | log KML(OH) [5] | k0 (spontaneous dissociation of the nonprotonated complex) [6] | k1 (spontaneous dissociation of the monoprotonated complex) [6] | further results
c1ccc(CN2CCOCCOCCNCc3cccc(n3)C2)nc1 [L2] | 7.14(1) | 2.1(1) | 7.23(7) | 4.11(4) | 10.25(1) | -10.89(3) | 6.93 | 2.99(2) | 13.36(1) | -10.97(2) | 16.57(8) | -10.78(8) | (1.1 ± 0.3) × 10^–3 s^–1 | 737 ± 110 M^–1 s^–1 | log KH2ML [2]: 6.63(9); k2 (proton-assisted dissociation of the monoprotonated complex) [6]: (4.5 ± 0.8) × 10^7 M^–2 s^–1
c1cc2nc(c1)CN(Cc1nc3ccccc3[nH]1)CCOCCOCCNC2 [L3] | 5.85(1) | 1.98(1) | 6.72(6) | 3.53(1) | 9.74(1) | -9.78(1) | 6.80 | 2.09(6) | 12.09(1) | -9.33(2) | 16.91(2) | -7.9(1) | (1.9 ± 0.3) × 10^–3 s^–1 | 912 ± 41 M^–1 s^–1 | log KML(OH) [2]: -10.93(1); log KHML [5]: 2.1(4)
O.O.[Mn+2].c1cc2nc(c1)CNCCOCCOCCNC2 [Mn(15-pyN3O2)] |  |  |  |  |  |  |  |  |  |  |  |  |  |  | r1 (relaxivity) ([7]; 25 °C): 4.48 mM^–1 s^–1; r1 (relaxivity) ([7]; 37 °C): 3.61 mM^–1 s^–1; AO/ℏ [8]: 38.6 10^6 rad s^–1; ErH [8]: 16.1 kJ mol^–1; kex^298 [8]: 0.38 10^7 s^–1; ΔH^‡ [8]: 35.3 kJ mol^–1; ΔS^‡ [8]: –1.0 J mol^–1K^–1; Δ^2 [8]: 6.6 10^18 s^–2; τrH^298 [8]: 40.3 ps; τv^298 [8]: 3.3 ps; Eox [9]: 912 mV
